Experimental data: US20020187538A1, “cDNA clone of (+)- delta-cadinene-8-hydroxylase gene from cotton plants” (priority 2001, published 2002)

Tested on: CYP706B1
Assay: (+)-d-cadinene hydroxylase activity assay, inhibitors and cofactor
Format: biochemical, Gossypium arboreum
Conditions: for sensitivity to inhibition: qualitative statement, taken as indication of a cytochrome P450
Procedure: The yeast Saccharomyces cerevisiae strain W(R), which overexpresses the yeast cytochrome P450 reductase when grow on galactose, and the expression vector pYeDP60 were provided by D. Pompon (Pompon et al (1996) Methods Enzymol. 272, 51-64). The cDNA of CYP706B1 was modified by PCR with a 5′-terminal primer 5ç-[…] (sense), in which a Kpn I site was introduced, and a 3′-terminal primer 5ç-[…] (reverse), in which a Sac I site was introduced. PCR was conducted on plasmid DNA by using Pyrobest™ DNA polymerase (TaKaRa). After digestion with the restriction enzymes, the fragment was inserted into pYeDP60. Plasmid DNA was introduced into yeast cells by a LiAc method, transformed yeast cells were then selected, cultured, and induced, and microsomes were prepared following a high density procedure (Pompon et al (1996) Methods Enzymol. 272, 51-64).
The (+)-d-cadinene hydroxylase activity assay was based on a published protocol for monoterpene P450 hydroxylases (Mihaliak et al. (1993) Methods Plant Biochem. 9, 261-279). The radioactive assay was conducted in […] of potassium phosphate buffer (50 mM, pH 7.4) containing 1 mM EDTA (pH 8.0), 0.4 M sucrose, 2 mM DTT, 0.1% BSA, 1 mM NADPH, 5 mM FAD, 5 mM FMN, 4 mM glucose-6-phosphate, 1 unit of glucose-6-phosphate dehydrogenase, […] ^3H-(+)-d-cadinene (32 mCi/mmol) and yeast microsomes (100^˜[…] protein). The reaction was started by adding the microsomes, incubated at 30° C. for 1 hr, and stopped by chilling on ice. The reaction mixture was extracted three times with […] hexane:ethyl acetate (1:1), the extract was filtered through a 0.2 g, 100^˜200 mesh silica gel column in a pasteur pipet, eluted with 1.5 mL hexane:ethyl acetate (1:1), and concentrated to ca […] with an argon stream. The entire sample was subjected to reversed phase HPLC on C18 silica (250×4.6 mm, […] particle diameter) with a gradient of 40:60 to 100:0 acetonitrile/water (v/v) over 60 min followed by 10 min of 100% acetonitrile, flow rate 1 mL/min. Tritium was detected by an on-line liquid scintillation counter (b-RAM, IN/US Systems, Inc., Tampa, Fla.). […]

Row | SMILES | sensitivity to inhibition | inhibition of the hydroxylase activity (reaction mixture treated with a slow stream of CO for about 2 min, yeast microsomes containing CYP706B1)
1 | Clc1ccc(COC(Cn2ccnc2)c2ccc(Cl)cc2Cl)c(Cl)c1 (stereo not drawn) [miconazole] | sensitivity to inhibition | 
2 | [C-]#[O+] [CO, carbon monoxide] | sensitivity to inhibition | 70%
